Assay results published in paper PMC7186840, “Chemical‐Shift Perturbations Reflect Bile Acid Binding to Norovirus Coat Protein: Recognition Comes in Different Flavors” (Chembiochem, 2019).

Key:
GII.4 Saga VLPs [1] = target: T1, GII.4 Saga VLPs (Norovirus Hu/GII-4/Saga4/2006/JP, UniProt B5BTR7); assay: STD NMR; assay type: binding; details: pH 7.3, 277 K
T1 construct: virus-like particles of VP1, arginine tail present; donated by G. Hansman

GII.4 Saga P dimers [2] = target: T2, GII.4 Saga P dimers (Norovirus Hu/GII-4/Saga4/2006/JP, UniProt B5BTR7); assay: 1H, […] TROSY HSQC CSP titration; assay type: binding
T2 construct: isotope-labelled, non-deamidated

GII.10 Vietnam026 VLPs = target: T3, GII.10 Vietnam026 VLPs (Norwalk virus, UniProt Q5F4T5); assay: STD NMR titration, single saturation time […] s; assay type: binding
T3 construct: virus-like particles of VP1, arginine tail present; donated by G. Hansman

GII.4 MI001 P dimers = target: T4, GII.4 MI001 P dimers (Norovirus Hu/GII.4/MI001/2011/USA, UniProt S5FWF8); assay: 1H, […] TROSY HSQC CSP titration; assay type: binding
T4 construct: [U-2H,15N]-labelled

GI.1 Norwalk VLPs = target: T5, GI.1 Norwalk VLPs (Norovirus GI, UniProt A0A1S5QJB8); assay: STD NMR titration, single saturation time […] s; assay type: binding; details: read-out: K D app; pH 7.3, 277 K, 10 % D2O; apparent, ligand aggregation
T5 construct: virus-like particles of VP1, arginine tail present; donated by G. Hansman

GII.4 Saga VLPs [3] = target: T1, GII.4 Saga VLPs; assay: STD NMR titration, single saturation time […] s; assay type: binding
GII.7 RKI VLPs = target: T6, GII.7 RKI VLPs (Norovirus Hu/GII.7/VLP 05G954/2005/DE, UniProt S5GGK6); assay: STD NMR titration, single saturation time […] s; assay type: binding
T6 construct: virus-like particles of VP1, arginine tail present; gift of S. Taube

GII.4 Ast6139 VLPs = target: T7, GII.4 Ast6139 VLPs (Norwalk virus, UniProt Q70ET2); assay: STD NMR titration, single saturation time […] s; assay type: binding
T7 construct: virus-like particles of VP1, arginine tail present; donated by F. Parra

[4] = target: T8, GII.17 Kawasaki308 P dimers (Norovirus Hu/GII/JP/2015/GII.P17_GII.17/Kawasaki308, UniProt A0A0E4B1P1); assay: methyl TROSY CSP titration; assay type: binding
T8 construct: gene VP1; MIL(ProS)V(ProS)A methyl-labelled
From the text: methyl TROSY CSP titration on GII.17 Kawasaki308 P dimers

GII.17 Kawasaki308 VLPs = target: T9, GII.17 Kawasaki308 VLPs (Norovirus Hu/GII/JP/2015/GII.P17_GII.17/Kawasaki308, UniProt A0A0E4B1P1); assay: STD NMR titration, single saturation time […] s; assay type: binding
T9 construct: gene VP1; virus-like particles of VP1, arginine tail present; donated by G. Hansman

GII.17 Saitama/T87 VLPs = target: T10, GII.17 Saitama/T87 VLPs (Norovirus GII/Hu/JP/2002/GII.P16_GII.17/Saitama/T87, UniProt A0A076JB57); assay: biochemical; design: STD NMR titration of norovirus VLPs with cholic acid, single saturation time 2 s; apparent KD from STD-AF
T10 construct: gene VP1; virus-like particles of VP1, arginine tail present; donated by G. Hansman
Experimental: Samples containing VLPs were prepared at 0.41 to 1 mg mL^−1 VP1 concentration (6.9 to 17.7 μM binding sites) in PBS pH 7.3, 100 μM [D6]DSS, 0.02 % NaN3 and 10 % D2O. […] Bile acid stock solution were prepared as described above for backbone chemical shift perturbation experiments. For N373D Saga P dimers, one sample containing 45 μM P dimers, 100 μM [D6]DSS in 20 mM fully deuterated sodium phosphate buffer (pH 7.45) was prepared and titrated with CA up to a final concentration of 12 mM. […] In one set of experiments we performed titrations at single saturation times of 2 s15 (cf. Figure S5 and Table S1). Another titration experiment made use of initial STD growth rates16 determined from STD build up curves (Figure S6 and Table S2). The initial growth rates were also used to derive a binding epitope for CA (Figures 2 and S3). The apparent K D values obtained are similar, with the value resulting from initial growth rates being slightly smaller, as expected.

GII.4 Saga VLPs [5] = target: T1, GII.4 Saga VLPs; assay: biochemical; design: STD NMR titration of norovirus VLPs with cholic acid; apparent KD from initial STD growth rates
Experimental: Samples containing VLPs were prepared at 0.41 to 1 mg mL^−1 VP1 concentration (6.9 to 17.7 μM binding sites) in PBS pH 7.3, 100 μM [D6]DSS, 0.02 % NaN3 and 10 % D2O. […] Bile acid stock solution were prepared as described above for backbone chemical shift perturbation experiments. For N373D Saga P dimers, one sample containing 45 μM P dimers, 100 μM [D6]DSS in 20 mM fully deuterated sodium phosphate buffer (pH 7.45) was prepared and titrated with CA up to a final concentration of 12 mM. with STD‐AFmax being the maximum STD‐AF for a given proton, k sat the saturation rate constant, and t sat the saturation time. Initial slopes STD‐AF0 were obtained from STD‐AF0=STD‐AFmax k sat, and were plotted as a function of the ligand concentration. Fitting Equation (1) to the resulting binding isotherms delivered dissociation constants K D. For curve fitting Origin2016G (OriginLab) was used. To compare P dimers to viral capsids, we also obtained STD NMR titration curves for CA binding to GII.4 Saga VLPs (Figure 3 D; Table 1, No. 5 and 6). In one set of experiments we performed titrations at single saturation times of 2 s15 (cf. Figure S5 and Table S1). Another titration experiment made use of initial STD growth rates16 determined from STD build up curves (Figure S6 and Table S2). The initial growth rates were also used to derive a binding epitope for CA (Figures 2 and S3). […]

GII.4 Saga P dimers [6] = target: T2, GII.4 Saga P dimers; assay: 1H, […] TROSY HSQC CSP; assay type: binding; details: 2 mM ligand, pH 7.3, 298 K; same site as CA

In the case of C[C@H](CCC(=O)NCCS(=O)(=O)O)[C@H]1CC[C@H]2[C@@H]3[C@H](O)C[C@@H]4C[C@H](O)CC[C@]4(C)[C@H]3CC[C@]12C [TCDCA, sodium taurochenodeoxycholate], the “STD NMR” value (GII.4 Saga VLPs [1]; 1 mM ligand in presence of GCA (1 mM)) is reported as “In each case STD NMR spectra indicate binding of bile acids to VLPs”.

Compound CC1(C)[C@@H](O[C@H]2O[C@H](C(=O)O)[C@@H](O)[C@H](O)[C@H]2O[C@@H]2O[C@H](C(=O)O)[C@@H](O)[C@H](O)[C@H]2O)CC[C@]2(C)[C@H]3C(=O)C=C4[C@@H]5C[C@@](C)(C(=O)O)CC[C@]5(C)CC[C@@]4(C)[C@]3(C)CC[C@@H]12 [GR, glycyrrhizic acid] has a Kd (GII.4 Saga P dimers [2]) of 13.8 ± 0.4 mM.

Work on C[C@H](CCC(=O)NCC(=O)O)[C@H]1CC[C@H]2[C@@H]3[C@H](O)C[C@@H]4C[C@H](O)CC[C@]4(C)[C@H]3CC[C@]12C [GCDCA, glycochenodeoxycholic acid] yielded a Kd (GII.4 Saga P dimers [2]) of 1.5 ± 0.3 mM.

With C[C@H](CCC(=O)NCC(=O)O)[C@H]1CC[C@H]2[C@@H]3[C@H](O)C[C@@H]4C[C@H](O)CC[C@]4(C)[C@H]3C[C@H](O)[C@]12C [GCA, sodium glycocholate hydrate] the “STD NMR” value (GII.4 Saga VLPs [1]; 1 mM ligand in presence of TCDCA (1 mM)) was “In each case STD NMR spectra indicate binding of bile acids to VLPs”.

In the case of C[C@H](CCC(=O)O)[C@H]1CC[C@H]2[C@@H]3[C@H](O)C[C@@H]4C[C@H](O)CC[C@]4(C)[C@H]3C[C@H](O)[C@]12C [CA, cholic acid], the Kd (GII.10 Vietnam026 VLPs) is reported as 12.9 ± 2.9 mM, the Kd (GII.4 MI001 P dimers) is reported as 11.1 ± 0.9 mM and the Kd (GI.1 Norwalk VLPs) is reported as 12.2 ± 1.8 mM. For the same compound, the Kd (GII.4 Saga VLPs [3]) was 4.7 ± 0.4 mM, the Kd (GII.7 RKI VLPs) was 10.9 ± 4.3 mM and the Kd (GII.4 Ast6139 VLPs) was 26.5 ± 8 mM. The Kd [4] was 20.1 ± 2.9 mM, the Kd (GII.17 Kawasaki308 VLPs) was 31.5 ± 2.8 mM and the Kd (GII.4 Saga P dimers [2]) was 10 ± 0.6 mM. For the same compound, the Kd (GII.17 Saitama/T87 VLPs) was 6.6 ± 0.4 mM and the Kd (GII.4 Saga VLPs [5]) was 3.6 ± 0.7 mM.

For C[C@H](CCC(=O)O)[C@H]1CC[C@H]2[C@@H]3CC[C@@H]4C[C@H](O)CC[C@]4(C)[C@H]3C[C@H](O)[C@]12C [DCA, deoxycholic acid], the “1H,15N TROSY HSQC CSP” value (GII.4 Saga P dimers [6]) was “Binding of DCA, GCDCA, and CDCA yields very similar CSPs reflecting binding to the same site”.

With C[C@H](CCC(=O)O)[C@H]1CC[C@H]2[C@@H]3[C@H](O)C[C@@H]4C[C@H](O)CC[C@]4(C)[C@H]3CC[C@]12C [CDCA, chenodeoxycholic acid] the “1H,15N TROSY HSQC CSP” value (GII.4 Saga P dimers [6]) was “Binding of DCA, GCDCA, and CDCA yields very similar CSPs reflecting binding to the same site”.
